Key:
Test in all cases: KinomeScan profiling
Type in all cases: binding
[1] = target: T1, SBK1 (Homo sapiens, UniProt Q52WX2); details: SBK1, 1 μM; read-out: % control
T1 construct: purchased KinomeScan® (panel service)
Method in brief: (§1)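 At 1 μM in DMSO, compounds are run through a broad 468-member kinase panel. The luminescent read-out is normalised so that vehicle gives 100% and a positive control gives 0%; any kinase falling below 35% is treated as a target.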

[2] = target: CAMK2B (Homo sapiens, UniProt Q13554); details: read-out: % control
Method in brief: as §1

[3] = target: T2, ACVR2B (Homo sapiens, UniProt Q13705); details: read-out: % control
T2 construct: purchased KinomeScan®
Method in brief: as §1

[4] = target: T3, ABL1-phosphorylated (Homo sapiens, UniProt P00519); details: read-out: % control
T3 construct: purchased KinomeScan®
Method in brief: as §1

[5] = target: T4, PIP5K1A (Homo sapiens, UniProt Q99755); details: read-out: % control
T4 construct: purchased KinomeScan® (panel service)
Method in brief: as §1

[6] = target: CAMK2G (Homo sapiens, UniProt Q13555); details: read-out: % control
Method in brief: as §1

[7] = target: CDK8 (Homo sapiens, UniProt P49336); details: CDK8, 1 μM; read-out: % control
Method in brief: as §1

[8] = target: GSK3B (Homo sapiens, UniProt P49841); details: read-out: % control
Method in brief: as §1

[9] = target: T5, LATS1 (Homo sapiens, UniProt O95835); details: LATS1, 1 μM; read-out: % control
T5 construct: purchased KinomeScan®
T5 sequence (O95835 1-1130): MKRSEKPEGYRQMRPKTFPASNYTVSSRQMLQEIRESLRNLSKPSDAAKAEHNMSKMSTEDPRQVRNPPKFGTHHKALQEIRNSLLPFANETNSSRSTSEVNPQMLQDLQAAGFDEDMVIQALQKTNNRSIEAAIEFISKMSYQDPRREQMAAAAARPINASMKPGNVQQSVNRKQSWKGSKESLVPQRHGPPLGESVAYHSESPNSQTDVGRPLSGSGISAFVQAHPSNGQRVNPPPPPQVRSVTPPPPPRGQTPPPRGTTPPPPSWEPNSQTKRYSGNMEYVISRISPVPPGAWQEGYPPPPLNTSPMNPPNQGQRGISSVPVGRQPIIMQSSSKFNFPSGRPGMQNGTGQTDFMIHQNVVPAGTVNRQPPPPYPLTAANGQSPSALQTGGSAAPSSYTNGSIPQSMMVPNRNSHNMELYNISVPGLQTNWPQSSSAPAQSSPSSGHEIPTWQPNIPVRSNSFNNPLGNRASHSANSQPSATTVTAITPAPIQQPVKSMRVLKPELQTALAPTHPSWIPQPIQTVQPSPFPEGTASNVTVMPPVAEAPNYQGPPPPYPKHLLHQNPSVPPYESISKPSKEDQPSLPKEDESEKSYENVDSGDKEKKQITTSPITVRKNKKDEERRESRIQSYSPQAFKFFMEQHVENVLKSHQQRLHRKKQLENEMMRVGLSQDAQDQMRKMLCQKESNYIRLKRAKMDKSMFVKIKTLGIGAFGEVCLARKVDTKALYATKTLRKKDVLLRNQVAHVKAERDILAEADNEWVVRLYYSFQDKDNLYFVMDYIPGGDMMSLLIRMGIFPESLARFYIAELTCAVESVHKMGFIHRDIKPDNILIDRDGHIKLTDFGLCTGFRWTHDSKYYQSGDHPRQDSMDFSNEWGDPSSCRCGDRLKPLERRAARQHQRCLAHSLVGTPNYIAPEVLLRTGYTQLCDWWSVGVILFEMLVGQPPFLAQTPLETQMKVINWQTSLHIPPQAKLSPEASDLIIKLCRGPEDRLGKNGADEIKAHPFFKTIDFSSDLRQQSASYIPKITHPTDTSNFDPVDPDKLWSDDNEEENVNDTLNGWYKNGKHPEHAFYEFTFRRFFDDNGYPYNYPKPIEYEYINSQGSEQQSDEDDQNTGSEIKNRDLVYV
Method in brief: as §1

[10] = target: CLK4 (Homo sapiens, UniProt Q9HAZ1); details: CLK4, 1 μM; read-out: % control
Method in brief: as §1

[11] = target: T6, KIT(D816H) (Homo sapiens, UniProt P10721, D816H); details: read-out: % control
T6 construct: purchased KinomeScan®
Method in brief: as §1

[12] = target: T7, SRPK1 (Homo sapiens, UniProt Q96SB4); details: SRPK1, 1 μM; read-out: % control
T7 construct: purchased KinomeScan® (panel service)
Method in brief: as §1

[13] = target: PAK7 (Homo sapiens, UniProt Q9P286); details: PAK7, 1 μM; read-out: % control
Method in brief: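 Single-point competition binding screen: 1 μM, DMSO, 468 kinases. Results reported as % control from RLU, normalised to DMSO and positive-control wells. Activity threshold: <35% control.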

T4 sequence (Q99755 whole entry): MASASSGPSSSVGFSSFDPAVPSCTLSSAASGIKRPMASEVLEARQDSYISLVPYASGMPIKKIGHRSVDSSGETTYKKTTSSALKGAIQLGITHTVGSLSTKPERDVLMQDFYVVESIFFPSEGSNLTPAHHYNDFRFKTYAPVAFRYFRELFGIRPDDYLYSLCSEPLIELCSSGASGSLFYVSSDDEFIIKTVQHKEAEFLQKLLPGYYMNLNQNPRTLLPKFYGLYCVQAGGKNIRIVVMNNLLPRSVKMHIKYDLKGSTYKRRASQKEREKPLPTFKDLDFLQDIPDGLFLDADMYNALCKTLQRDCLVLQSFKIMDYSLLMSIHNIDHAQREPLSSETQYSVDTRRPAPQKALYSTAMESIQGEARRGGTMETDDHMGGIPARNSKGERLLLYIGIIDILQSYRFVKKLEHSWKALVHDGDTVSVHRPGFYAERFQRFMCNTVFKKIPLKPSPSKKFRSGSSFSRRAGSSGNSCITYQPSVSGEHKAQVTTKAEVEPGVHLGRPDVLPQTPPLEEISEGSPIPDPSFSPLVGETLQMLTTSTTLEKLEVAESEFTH
T1 sequence (Q52WX2 whole entry): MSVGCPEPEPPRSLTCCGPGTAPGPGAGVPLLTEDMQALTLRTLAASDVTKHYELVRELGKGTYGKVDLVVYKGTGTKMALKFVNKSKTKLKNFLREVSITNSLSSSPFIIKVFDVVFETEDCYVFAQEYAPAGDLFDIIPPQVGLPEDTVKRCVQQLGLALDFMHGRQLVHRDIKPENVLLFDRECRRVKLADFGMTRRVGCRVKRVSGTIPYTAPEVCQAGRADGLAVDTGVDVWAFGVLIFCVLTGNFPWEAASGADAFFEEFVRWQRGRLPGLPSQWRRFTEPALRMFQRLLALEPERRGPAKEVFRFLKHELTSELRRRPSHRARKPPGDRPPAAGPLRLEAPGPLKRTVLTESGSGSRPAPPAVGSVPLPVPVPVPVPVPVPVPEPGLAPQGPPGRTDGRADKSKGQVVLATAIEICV
Sequence of PAK7 (Q9P286 whole entry): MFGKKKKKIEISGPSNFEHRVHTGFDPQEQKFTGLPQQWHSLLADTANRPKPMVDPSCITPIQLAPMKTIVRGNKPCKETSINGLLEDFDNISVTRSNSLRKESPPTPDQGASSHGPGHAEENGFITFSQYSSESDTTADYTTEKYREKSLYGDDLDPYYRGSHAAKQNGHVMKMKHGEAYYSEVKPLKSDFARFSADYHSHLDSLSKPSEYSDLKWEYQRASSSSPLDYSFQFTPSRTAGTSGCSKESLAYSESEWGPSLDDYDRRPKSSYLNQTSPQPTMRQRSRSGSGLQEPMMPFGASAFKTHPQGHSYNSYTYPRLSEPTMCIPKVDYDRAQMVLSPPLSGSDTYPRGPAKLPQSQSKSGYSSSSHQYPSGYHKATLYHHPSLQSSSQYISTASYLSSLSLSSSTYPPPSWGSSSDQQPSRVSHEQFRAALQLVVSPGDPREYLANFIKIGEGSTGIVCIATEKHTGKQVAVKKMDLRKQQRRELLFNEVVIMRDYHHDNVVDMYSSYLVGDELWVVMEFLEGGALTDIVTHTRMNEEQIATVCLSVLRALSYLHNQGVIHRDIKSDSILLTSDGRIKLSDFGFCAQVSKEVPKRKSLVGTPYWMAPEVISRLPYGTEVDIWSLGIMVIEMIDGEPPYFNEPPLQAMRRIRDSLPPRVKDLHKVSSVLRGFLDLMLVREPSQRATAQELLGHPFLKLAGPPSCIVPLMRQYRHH
Sequence of CLK4 (Q9HAZ1 whole entry): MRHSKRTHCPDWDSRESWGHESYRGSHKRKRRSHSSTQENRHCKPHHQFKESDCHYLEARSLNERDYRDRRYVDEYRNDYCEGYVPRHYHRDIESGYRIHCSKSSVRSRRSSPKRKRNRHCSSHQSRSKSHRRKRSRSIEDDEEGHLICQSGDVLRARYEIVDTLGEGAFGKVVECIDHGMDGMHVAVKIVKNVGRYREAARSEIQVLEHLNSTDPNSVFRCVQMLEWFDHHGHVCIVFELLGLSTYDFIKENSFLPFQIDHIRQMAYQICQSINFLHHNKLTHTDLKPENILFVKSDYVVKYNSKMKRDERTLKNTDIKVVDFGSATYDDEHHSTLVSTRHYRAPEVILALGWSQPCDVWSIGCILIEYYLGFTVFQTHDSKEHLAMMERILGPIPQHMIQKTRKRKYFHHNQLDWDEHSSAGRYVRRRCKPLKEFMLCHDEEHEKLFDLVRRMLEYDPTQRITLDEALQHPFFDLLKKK
T3 sequence (P00519 whole entry): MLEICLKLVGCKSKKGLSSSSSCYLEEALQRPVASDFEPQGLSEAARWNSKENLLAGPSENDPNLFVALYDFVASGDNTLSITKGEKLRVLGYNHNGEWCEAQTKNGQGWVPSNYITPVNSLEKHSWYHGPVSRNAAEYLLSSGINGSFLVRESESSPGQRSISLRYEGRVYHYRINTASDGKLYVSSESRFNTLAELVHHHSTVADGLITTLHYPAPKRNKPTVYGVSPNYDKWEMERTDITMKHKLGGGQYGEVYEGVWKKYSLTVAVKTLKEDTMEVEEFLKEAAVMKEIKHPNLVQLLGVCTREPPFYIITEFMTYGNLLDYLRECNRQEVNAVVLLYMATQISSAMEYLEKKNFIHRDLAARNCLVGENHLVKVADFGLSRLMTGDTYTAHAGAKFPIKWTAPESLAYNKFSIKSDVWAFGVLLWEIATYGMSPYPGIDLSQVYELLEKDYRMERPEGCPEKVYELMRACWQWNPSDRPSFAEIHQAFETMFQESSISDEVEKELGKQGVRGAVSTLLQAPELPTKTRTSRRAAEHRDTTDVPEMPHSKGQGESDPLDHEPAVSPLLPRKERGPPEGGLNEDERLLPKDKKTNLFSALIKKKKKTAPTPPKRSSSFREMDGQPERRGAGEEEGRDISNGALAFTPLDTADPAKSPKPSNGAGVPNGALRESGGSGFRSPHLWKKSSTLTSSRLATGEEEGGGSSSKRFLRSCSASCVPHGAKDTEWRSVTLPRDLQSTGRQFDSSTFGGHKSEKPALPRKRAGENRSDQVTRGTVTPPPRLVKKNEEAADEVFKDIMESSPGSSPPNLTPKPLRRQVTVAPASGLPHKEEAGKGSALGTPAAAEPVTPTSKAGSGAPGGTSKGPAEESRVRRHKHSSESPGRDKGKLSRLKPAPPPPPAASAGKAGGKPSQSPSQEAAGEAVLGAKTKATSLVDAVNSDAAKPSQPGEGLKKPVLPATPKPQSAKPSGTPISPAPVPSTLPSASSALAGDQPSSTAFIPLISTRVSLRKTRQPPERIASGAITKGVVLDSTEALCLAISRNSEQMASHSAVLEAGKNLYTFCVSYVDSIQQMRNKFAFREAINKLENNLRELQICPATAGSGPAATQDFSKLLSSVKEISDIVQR
Sequence of CAMK2G (Q13555 whole entry): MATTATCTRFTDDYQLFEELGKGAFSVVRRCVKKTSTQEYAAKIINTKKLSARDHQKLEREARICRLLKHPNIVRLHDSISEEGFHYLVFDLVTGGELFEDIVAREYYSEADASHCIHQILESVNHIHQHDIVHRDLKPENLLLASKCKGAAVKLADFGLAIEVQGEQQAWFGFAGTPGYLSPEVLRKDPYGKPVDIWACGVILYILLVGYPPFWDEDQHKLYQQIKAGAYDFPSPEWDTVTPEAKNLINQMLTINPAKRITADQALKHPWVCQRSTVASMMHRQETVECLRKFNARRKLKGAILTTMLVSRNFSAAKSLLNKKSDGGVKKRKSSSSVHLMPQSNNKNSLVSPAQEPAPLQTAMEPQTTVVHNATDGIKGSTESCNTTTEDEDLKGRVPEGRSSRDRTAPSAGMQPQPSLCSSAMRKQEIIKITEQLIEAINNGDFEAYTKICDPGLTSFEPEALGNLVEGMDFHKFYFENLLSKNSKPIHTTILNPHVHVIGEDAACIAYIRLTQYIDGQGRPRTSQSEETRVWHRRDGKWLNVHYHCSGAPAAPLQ
T7 sequence (Q96SB4 whole entry): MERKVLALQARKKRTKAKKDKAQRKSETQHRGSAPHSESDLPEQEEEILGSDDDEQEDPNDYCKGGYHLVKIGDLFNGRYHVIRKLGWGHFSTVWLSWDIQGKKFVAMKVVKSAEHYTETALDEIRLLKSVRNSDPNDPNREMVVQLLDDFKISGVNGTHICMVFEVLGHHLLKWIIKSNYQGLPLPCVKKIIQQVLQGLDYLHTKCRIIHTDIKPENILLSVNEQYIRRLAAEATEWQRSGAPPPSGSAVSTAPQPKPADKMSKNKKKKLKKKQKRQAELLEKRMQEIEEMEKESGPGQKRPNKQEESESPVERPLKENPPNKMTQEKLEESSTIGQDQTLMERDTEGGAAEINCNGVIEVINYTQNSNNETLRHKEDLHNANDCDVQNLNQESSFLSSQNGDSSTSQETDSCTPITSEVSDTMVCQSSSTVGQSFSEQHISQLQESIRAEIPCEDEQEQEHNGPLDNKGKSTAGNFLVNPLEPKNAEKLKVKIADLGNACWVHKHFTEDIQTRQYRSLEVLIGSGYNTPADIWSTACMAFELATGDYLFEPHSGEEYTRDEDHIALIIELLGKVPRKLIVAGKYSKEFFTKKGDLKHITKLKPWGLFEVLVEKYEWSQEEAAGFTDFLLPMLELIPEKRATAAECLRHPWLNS
Sequence of CDK8 (P49336 whole entry): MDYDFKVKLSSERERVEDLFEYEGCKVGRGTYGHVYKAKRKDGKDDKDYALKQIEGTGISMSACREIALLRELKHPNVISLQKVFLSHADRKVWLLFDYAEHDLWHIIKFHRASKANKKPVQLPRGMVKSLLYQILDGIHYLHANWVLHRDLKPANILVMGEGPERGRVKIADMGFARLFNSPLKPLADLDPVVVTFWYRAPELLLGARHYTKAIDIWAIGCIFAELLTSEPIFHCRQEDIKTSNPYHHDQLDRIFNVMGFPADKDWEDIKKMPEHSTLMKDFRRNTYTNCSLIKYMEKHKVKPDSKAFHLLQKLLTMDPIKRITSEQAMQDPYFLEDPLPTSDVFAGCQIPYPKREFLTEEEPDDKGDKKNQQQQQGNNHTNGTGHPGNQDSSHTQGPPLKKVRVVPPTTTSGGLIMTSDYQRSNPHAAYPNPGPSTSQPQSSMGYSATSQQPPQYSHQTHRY

SMILES | remaining binding at 1 µM [1] [%] | remaining binding at 1 µM [2] [%] | remaining binding at 1 µM [3] [%] | remaining binding at 1 µM [4] [%] | remaining binding at 1 µM [5] [%] | remaining binding at 1 µM [6] [%] | remaining binding at 1 µM [7] [%] | remaining binding at 1 µM [8] [%] | remaining binding at 1 µM [9] [%] | remaining binding at 1 µM [10] [%] | remaining binding at 1 µM [11] [%] | remaining binding at 1 µM [12] [%] | remaining binding at 1 µM [13] [%]
CNc1c(-c2cnn([C@H]3CCN(C(C)=O)C[C@@H]3F)c2)cnc2[nH]cc(Cl)c12 [Compound 77, 1-((3S,4S)-4-(4-(3-chloro-4-(methylamino)-1H-pyrrolo[2,3-b]pyridin-5-yl)-1H-pyrazol-1-yl)-3-fluoropiperidin-1-yl)ethan-1-one] | 44 | 100 | 77 | 62 | 7.7 | 90 | 100 | 69 | 91 | 72 | 51 | 10 | 100
O=C(c1ccc(-c2cnc3[nH]cc(Cl)c3c2NC2CCCC2)cc1)N1CCC(N2CCOCC2)CC1 [Compound 101, (4-(3-chloro-4-(cyclopentylamino)-1H-pyrrolo[2,3-b]pyridin-5-yl)phenyl)(4-morpholinopiperidin-1-yl)methanone] | 67 | 99 | 100 | 97 | 12 | 96 | 59 | 100 | 100 | 42 | 92 | 27 | 95
CNc1c(-c2ccc(C(=O)N3CCC(N4CCOCC4)CC3)cc2)cnc2[nH]cc(Cl)c12 [Compound 96, (4-(3-chloro-4-(methylamino)-1H-pyrrolo[2,3-b]pyridin-5-yl)phenyl)(4-morpholinopiperidin-1-yl)methanone] | 63 | 100 | 91 | 88 | 16 | 95 | 82 | 63 | 100 | 11 | 75 | 17 | 41

Source: patent US12275731B2, “Azaindole inhibitors of wild-type and mutant forms of LRRK2” (DANA-FARBER CANCER INSTITUTE, INC., priority 2018, dated 2025)
